The source of these data is patent US9808954B2, “Composition of a timber formulation comprising Cu salts and organic cyclic ingredients for the preservation of timber for decks” (Rutgers Organics GmbH, priority 2014, dated 2017).

Assay [1] concerns coniophora puteana. Kind of assay: EN113 test after EN84 washing, pine timber, coniophora puteana. It counts as cell-based. As for the experimental part:
(§1) Timber pieces were positioned in a treating vessel. Over a period of 30 minutes a pressure of 0.1 bar was applied. The treating solution containing a Product was sucked into the vessel. Then the pressure in the vessel was increased to 10 bar at 25° C. for 90 minutes. Afterwards the pressure was set to ambient pressure and the remainder of the treating solution was removed. The impregnated timber pieces were dried at ambient temperature.
(§2) In both tables 13 and 14 the standard applied is EN113. Prior to EN113, the timber was washed according to EN84. The type of timber used was pine.
(§3) Tables 13 and 14 show the average retention of the active ingredient (AI) in Product C when it is exposed to both “poria placenta” (table 13) and “coniophora puteana” (table 14). Comparisons are also made with retention values of DPAB and the azol (triadimefon) in the timber. Average AI retention values are required in order to pass the EN113 Standard.
(§4) In both tables 15 and 16 the standard applied is EN113. Prior to EN113, the timber was washed according to EN84. The type of timber used was pine.
(§5) As for product C, tables 15 and 16 show the average retention of the active ingredient (AI) in Product D when it is exposed to both “poria placenta” (table 15) and “coniophora puteana” (table 16). Comparisons are also made with retention values of DPAB and the azol (cyproconazol) in the timber. […]

Assay [2] relates to poria placenta. Kind of assay: EN113 test after EN84 washing, pine timber, poria placenta. The assay is classed as cell-based. As for the experimental part: as §1, §2, §3, §4, §5

“di-decyl-poly-oxethyl-ammoninum borate [DPAB TGAI]”: the “Average DPAB retention in timber” value was 7.40 kg/m^3 in assay [1] (coniophora puteana (Table 14)), 7.40 kg/m^3 in assay [1] (coniophora puteana (Table 16)), 4.50 kg/m^3 in assay [2] (poria placenta (Table 13)) and 4.50 kg/m^3 in assay [2] (poria placenta (Table 15)).
